Reference: patent US9695155B2, “Herbicidal substituted pyrimidinyloxy benzene compounds” (E. I. DU PONT DE NEMOURS AND COMPANY, priority 2013, dated 2017)

What was measured:
oilseed rape = assay: Test D postemergence; type: in vivo, Brassica napus; conditions: Brassica napus, post-emergence, scale 0 to 100 (0 no effect, 100 complete control), read-out: Plant response rating, Oilseed Rape
How it was run: (§1)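 In a controlled growth environment, treated and control plants were held 7 to 21 days, then compared visually. Damage was scored 0–100, where 100 means complete control. Sprays contained surfactant in a non-phytotoxic solvent; post-applied plants were at the 1- to 4-leaf stage.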

kochia [1] = assay: Test D postemergence; type: in vivo, Kochia scoparia; conditions: Bassia scoparia, post-emergence, scale 0 to 100 (0 no effect, 100 complete control), read-out: Plant response rating, Kochia
How it was run: as §1

chickweed = assay: Test D postemergence; type: in vivo, Stellaria media; conditions: Stellaria media, post-emergence, scale 0 to 100 (0 no effect, 100 complete control), read-out: Plant response rating, Chickweed
How it was run: as §1

wild poinsettia = assay: Test E postemergence; type: in vivo, Euphorbia heterophylla; conditions: Euphorbia heterophylla, post-emergence; Postemergence, 250 g ai/ha, scale 0 to 100; read-out: Plant response rating, Poinsettia, Wild
How it was run: (§2)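 Compound in a non-phytotoxic solvent mixture with surfactant was applied preemergence to seeds in silt loam soil, or postemergence to plants 2 to 18 cm tall grown in peat-based potting medium. Plants were kept in a greenhouse for 14 to 21 days, then rated visually against untreated controls on a 0 (no effect) to 100 (complete control) scale.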

corn = assay: Test E postemergence; type: in vivo, Zea mays; conditions: Zea mays, post-emergence
How it was run: as §2

field poppy = assay: Test D preemergence; type: in vivo, Papaver rhoeas; conditions: Papaver rhoeas, pre-emergence, scale 0-100, read-out: Plant response rating, Field Poppy
How it was run: as §1

windgrass = assay: Test D preemergence; type: in vivo, Apera spica-venti; conditions: Apera spica-venti, pre-emergence
How it was run: as §1

fall panicum = assay: Test E postemergence; type: in vivo, Panicum dichotomiflorum; conditions: Panicum dichotomiflorum, post-emergence, read-out: Plant response rating, Panicum, Fall
How it was run: as §2

sandbur = assay: Test E postemergence; type: in vivo, Cenchrus echinatus; conditions: Cenchrus echinatus, post-emergence, read-out: Plant response rating, Sandbur
How it was run: as §2

kochia [2] = assay: Test D preemergence; type: in vivo, Kochia scoparia; conditions: Bassia scoparia, pre-emergence, scale 0-100, read-out: Plant response rating, Kochia
How it was run: as §1

wild mustard = assay: Test D postemergence; type: in vivo, Sinapis arvensis; conditions: Brassica, post-emergence, scale 0 to 100 (0 no effect, 100 complete control), read-out: Plant response rating, Mustard, Wild
How it was run: as §1

field violet = assay: Test D preemergence; type: in vivo, Viola arvensis; conditions: Viola arvensis, pre-emergence, scale 0-100, read-out: Plant response rating, Field Violet
How it was run: as §1

Italian ryegrass = assay: Test D postemergence; type: in vivo, Lolium multiflorum; conditions: Lolium multiflorum, post-emergence, scale 0 to 100 (0 no effect, 100 complete control), read-out: Plant response rating, Ryegrass, Italian
How it was run: as §1

deadnettle = assay: Test D preemergence; type: in vivo, Lamium amplexicaule; conditions: Lamium amplexicaule, pre-emergence, scale 0-100, read-out: Plant response rating, Deadnettle
How it was run: as §1

[3] = Postemergence, 31 g ai/ha, scale 0 to 100
[4] = Postemergence, 62 g ai/ha, scale 0 to 100
[5] = Postemergence, 125 g ai/ha, scale 0 to 100
[6] = Postemergence, 250 g ai/ha, scale 0 to 100
[7] = postemergence, 16 g ai/ha, scale 0 to 100, 0 no effect, 100 complete control

**Q.** What does the source list for `N#Cc1cccc(Oc2ncc(Cl)cn2)c1-n1cc(C(F)(F)F)cn1` [Compound 58, 3-[(5-chloro-2-pyrimidinyl)oxy]-2-[4-(trifluoromethyl)-1H-pyrazol-1-yl]benzonitrile]?
**A.** plant injury at 31 g/ha (oilseed rape; 31 g ai/ha): 55%; plant injury at 62 g/ha (oilseed rape; 62 g ai/ha): 85%; plant injury at 125 g/ha (oilseed rape; 125 g ai/ha): 95%; plant injury at 250 g/ha (oilseed rape; 250 g ai/ha): 95%; pest or weed control at 31 g/ha (kochia [1]; 31 g ai/ha): 95%; pest or weed control at 62 g/ha (kochia [1]; 62 g ai/ha): 95%; pest or weed control at 125 g/ha (kochia [1]; 125 g ai/ha): 95%; pest or weed control at 250 g/ha (kochia [1]; 250 g ai/ha): 95%; pest or weed control at 31 g/ha (chickweed; 31 g ai/ha): 70%; pest or weed control at 62 g/ha (chickweed; 62 g ai/ha): 90%; pest or weed control at 125 g/ha (chickweed; 125 g ai/ha): 100%; pest or weed control at 250 g/ha (chickweed; 250 g ai/ha): 100%; pest or weed control at 250 g/ha (wild poinsettia): 90%; corn plant response (injury) rating, 0-100 at 31 g/ha (corn; [3]): 10%; corn plant response (injury) rating, 0-100 at 62 g/ha (corn; [4]): 10%; corn plant response (injury) rating, 0-100 at 125 g/ha (corn; [5]): 10%; corn plant response (injury) rating, 0-100 at 250 g/ha (corn; [6]): 15%; corn plant response (injury) rating, 0-100 at 16 g/ha (corn; [7]): 5%; pest or weed control at 31 g/ha (field poppy; 31 g ai/ha): 95%; pest or weed control at 62 g/ha (field poppy; 62 g ai/ha): 100%; pest or weed control at 125 g/ha (field poppy; 125 g ai/ha): 100%; pest or weed control at 250 g/ha (field poppy; 250 g ai/ha): 100%; pest or weed control at 31 g/ha (windgrass; 31 g ai/ha, scale 0 (no effect) to 100 (complete control), read-out: Plant response rating, Windgrass): 100%; pest or weed control at 62 g/ha (windgrass; 62 g ai/ha, scale 0-100, read-out: Plant response rating, Windgrass): 100%; pest or weed control at 125 g/ha (windgrass; 125 g ai/ha, scale 0-100, read-out: Plant response rating, Windgrass): 100%; pest or weed control at 250 g/ha (windgrass; 250 g ai/ha, scale 0-100, read-out: Plant response rating, Windgrass): 100%; pest or weed control at 31 g/ha (fall panicum; [3]): 30%; pest or weed control at 62 g/ha (fall panicum; [4]): 40%; pest or weed control at 125 g/ha (fall panicum; [5]): 60%; pest or weed control at 250 g/ha (fall panicum; [6]): 60%; pest or weed control at 16 g/ha (fall panicum; [7]): 20%; pest or weed control at 31 g/ha (sandbur; [3]): 10%; pest or weed control at 62 g/ha (sandbur; [4]): 10%; pest or weed control at 125 g/ha (sandbur; [5]): 20%; pest or weed control at 250 g/ha (sandbur; [6]): 55%; pest or weed control at 16 g/ha (sandbur; [7]): 0%; pest or weed control at 31 g/ha (kochia [2]; 31 g ai/ha): 95%; pest or weed control at 62 g/ha (kochia [2]; 62 g ai/ha): 95%; pest or weed control at 125 g/ha (kochia [2]; 125 g ai/ha): 95%; pest or weed control at 250 g/ha (kochia [2]; 250 g ai/ha): 95%; pest or weed control at 31 g/ha (wild mustard; 31 g ai/ha): 85%; pest or weed control at 62 g/ha (wild mustard; 62 g ai/ha): 100%; pest or weed control at 125 g/ha (wild mustard; 125 g ai/ha): 100%; pest or weed control at 250 g/ha (wild mustard; 250 g ai/ha): 100%; pest or weed control at 31 g/ha (field violet; 31 g ai/ha): 100%; pest or weed control at 62 g/ha (field violet; 62 g ai/ha): 100%; pest or weed control at 125 g/ha (field violet; 125 g ai/ha): 100%; pest or weed control at 250 g/ha (field violet; 250 g ai/ha): 100%; pest or weed control at 31 g/ha (Italian ryegrass; 31 g ai/ha): 10%; pest or weed control at 62 g/ha (Italian ryegrass; 62 g ai/ha): 20%; pest or weed control at 125 g/ha (Italian ryegrass; 125 g ai/ha): 50%; pest or weed control at 250 g/ha (Italian ryegrass; 250 g ai/ha): 65%; pest or weed control at 31 g/ha (deadnettle; 31 g ai/ha): 100%; pest or weed control at 62 g/ha (deadnettle; 62 g ai/ha): 100%; pest or weed control at 125 g/ha (deadnettle; 125 g ai/ha): 100%; pest or weed control at 250 g/ha (deadnettle; 250 g ai/ha): 100%
